Test systems include NCI-H522; SNB-75; A549; HOP-62; SK-MEL-2; OVCAR-3; UACC-62; SK-MEL-5; RPMI-8226; IGROV-1; SK-OV-3; U-251; ACHN; SW-620; SF-268.
Holding throughout (assay): NCI-60 cell line screen, 48 h

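Five compound concentrations were applied to cells in 96-well plates for 48 hours; endpoints were derived by simple linear interpolation of the resulting dose-response curve. GI50 = concentration required for 50% inhibition of growth.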 Calls of active or inactive are those of the source. Rule as the data show it: active = GI50 up to about 1.1 µM and inactive = higher. A value given as a limit tells only on which side of the number the result lay.

Turning to `O=C(/C=C\c1cccc2ccccc12)c1cccc2ccccc12`, the GI50 in the assay with NCI-H522 was 7.64 µM (inactive); in the assay on SNB-75, 5.37 µM (inactive); in the assay with A549, 13.1 µM (inactive); with HOP-62, 20.7 µM (inactive); with SK-MEL-2 it was 18.6 µM (inactive); with OVCAR-3, 7.91 µM (inactive). Moreover, the GI50 in the assay with UACC-62 was 9.04 µM (inactive); with SK-MEL-5, 12.7 µM (inactive); in the assay on RPMI-8226, 6.95 µM (inactive); in the assay on IGROV-1, 8.17 µM (inactive); in the assay with SK-OV-3 it was > 10 µM (inactive); in the assay on U-251 it was 6.34 µM (inactive). For the same compound, the GI50 was 11.6 µM (inactive) with ACHN and 3.37 µM (inactive) with SW-620.
Take `O=C1C2=C(C(c3ccccc3)=C1c1ccccc1)c1ccccc1C1(c3ccccc3)C2=C(O)C(c2ccccc2)=C1c1ccccc1` (stereo not given): the GI50 in the assay with NCI-H522, in the assay with SNB-75, in the assay with A549, in the assay on HOP-62, with SK-MEL-2 and in the assay with OVCAR-3 was > 100 µM (inactive) each time. In addition, the GI50 in the assay on UACC-62, in the assay on SK-MEL-5, in the assay on SF-268, with RPMI-8226, with IGROV-1 and with SK-OV-3 was > 100 µM (inactive) each time. The GI50 in the assay with U-251, in the assay with ACHN and in the assay with SW-620 was > 100 µM (inactive) in each case.
Take `CCN(CC)CCNC(=O)c1nn(C)c(=S)[nH]c1=S`: the GI50 in the assay on NCI-H522, with SNB-75, in the assay on A549, in the assay on HOP-62, in the assay with SK-MEL-2 and in the assay on OVCAR-3 was > 100 µM (inactive) throughout. Further, the GI50 in the assay on UACC-62, in the assay on SK-MEL-5, in the assay on RPMI-8226, in the assay with IGROV-1, in the assay with SK-OV-3 and in the assay on U-251 was > 100 µM (inactive) each time. Besides, the GI50 in the assay with ACHN and in the assay on SW-620 was > 100 µM (inactive) each time.
Regarding `N#Cc1c2c(c(N=P(c3ccccc3)(c3ccccc3)c3ccccc3)n3c1nc1ccccc13)CCCC2`, the GI50 in the assay on NCI-H522 was 14.3 µM (inactive); in the assay with SNB-75, 24.5 µM (inactive); in the assay with A549, 21.3 µM (inactive); in the assay with HOP-62, 19 µM (inactive); in the assay on SK-MEL-2 it was 16.6 µM (inactive); in the assay on OVCAR-3, 15.3 µM (inactive). Also, the GI50 in the assay with UACC-62 is 12.1 µM (inactive); in the assay with SK-MEL-5 it was 10.8 µM (inactive); in the assay on SF-268, > 100 µM (inactive); in the assay on RPMI-8226, 14.8 µM (inactive); with IGROV-1, 29.2 µM (inactive); with SK-OV-3 it was 40.9 µM (inactive). For the same compound, the values for the GI50 with U-251, in the assay on ACHN and in the assay with SW-620 were 14.4 µM (inactive), 15.7 µM (inactive) and 20.8 µM (inactive), respectively.
On to `O[C@]12c3ccccc3C1CCCCC2N1CCOCC1` (stereo not given in full), for which the GI50 with NCI-H522, in the assay with SNB-75, in the assay on A549, in the assay with HOP-62, in the assay on SK-MEL-2 and in the assay on UACC-62 was > 100 µM (inactive) each time. Besides, the GI50 with SK-MEL-5, in the assay with SF-268, with RPMI-8226, in the assay with SK-OV-3, with U-251 and in the assay on ACHN was > 100 µM (inactive) in each case. In addition, the GI50 in the assay with SW-620 is > 100 µM (inactive).
In the case of `COC1=C(OC)C(=O)c2cc(SC)c(=O)c(SC)cc2C1=O`, the GI50 with NCI-H522 was 17.1 µM (inactive); in the assay with SNB-75, 13.6 µM (inactive); in the assay with A549, 22.6 µM (inactive); in the assay with HOP-62, 15 µM (inactive); in the assay with SK-MEL-2 it was 3.85 µM (inactive); in the assay on OVCAR-3, 8.93 µM (inactive). The GI50 in the assay on UACC-62 was 2.12 µM (inactive); with SK-MEL-5 it was 12.4 µM (inactive); in the assay with SF-268 it was 12.8 µM (inactive); in the assay on RPMI-8226, 15.2 µM (inactive); in the assay on IGROV-1 it was 33.1 µM (inactive); in the assay on SK-OV-3 it was 36.4 µM (inactive). Also, the GI50 with U-251 was 17.9 µM (inactive); in the assay on ACHN, 12.8 µM (inactive); in the assay with SW-620, 33.5 µM (inactive).
As to `COC(=O)N/N=C(\Cc1ccccc1)CN(C)C`, the GI50 in the assay on NCI-H522, with SNB-75, in the assay on A549, with HOP-62, in the assay on SK-MEL-2 and in the assay with OVCAR-3 was > 100 µM (inactive) in each case. In addition, the GI50 in the assay with UACC-62, in the assay with SK-MEL-5, in the assay on SF-268, with RPMI-8226, with IGROV-1 and in the assay on SK-OV-3 was > 100 µM (inactive) each time. Besides, the GI50 in the assay with U-251, in the assay on ACHN and in the assay with SW-620 was > 100 µM (inactive) throughout.
Consider `CC[n+]1c(/C=C/c2ccc(N(CCCl)CCCl)cc2)ccc2cc(I)ccc21`, for which the GI50 in the assay with NCI-H522 is 0.312 µM (active); in the assay with SNB-75, 0.394 µM (active); in the assay with A549, 3.04 µM (inactive); in the assay with HOP-62 it was 1.51 µM (inactive); in the assay on SK-MEL-2 it was 0.372 µM (active); with OVCAR-3, 0.553 µM (active). In addition, the GI50 in the assay on UACC-62 was 0.507 µM (active); in the assay on SK-MEL-5, 0.552 µM (active); in the assay on SF-268 it was 1.78 µM (inactive); in the assay on RPMI-8226 it was 0.601 µM (active); in the assay on IGROV-1 it was 0.587 µM (active); in the assay on SK-OV-3 it was 1.31 µM (inactive). Moreover, the GI50 in the assay on U-251 is 0.67 µM (active); in the assay with ACHN it was 2.71 µM (inactive); in the assay on SW-620, 0.916 µM (active).
Turning to `ClCCCN1CCCCC1CCl` (stereo not given), the GI50 in the assay on NCI-H522 was > 100 µM (inactive); with SNB-75, 68.4 µM (inactive); in the assay on A549, > 100 µM (inactive); with HOP-62, 90.8 µM (inactive); with SK-MEL-2, > 100 µM (inactive); in the assay on OVCAR-3 it was > 100 µM (inactive). The GI50 was 43.7 µM (inactive) with UACC-62; > 100 µM (inactive) in the assay with SK-MEL-5; 53.2 µM (inactive) in the assay with SF-268; > 100 µM (inactive) in the assay with RPMI-8226; > 100 µM (inactive) in the assay on IGROV-1; > 100 µM (inactive) in the assay on SK-OV-3. In addition, the GI50 with U-251 is > 100 µM (inactive); in the assay on ACHN, 48.6 µM (inactive); with SW-620, > 100 µM (inactive).
Regarding `COC(=O)C1CC2(CC3=C1CCCC3)OCCO2` (stereo not given), the GI50 in the assay on NCI-H522, with SNB-75, with A549, in the assay with HOP-62, with SK-MEL-2 and in the assay with OVCAR-3 was > 100 µM (inactive) in each case. The GI50 in the assay on UACC-62, in the assay with SK-MEL-5, with SF-268, with RPMI-8226, in the assay with IGROV-1 and in the assay on SK-OV-3 was > 100 µM (inactive) each time. Also, the GI50 in the assay with U-251 and with SW-620 was > 100 µM (inactive) in each case.

For the origin of these results see ChEMBL document CHEMBL1201862, “PubChem BioAssay data set” (2004).
